Measured values: US4452787A, “1-Substituted tricyclic quinazolinones having biological activity as tranquilizers” (Sandoz, Inc., priority 1982, dated 1984)

System: benzodiazepine receptors
Assay: Flunitrazepam Receptor Binding Assay, FBA Test No. 1 (3H-flunitrazepam displacement, calf caudate)
Conditions: final concentration 1×10^-6 M, lower = more displacement of 3H-flunitrazepam, 1 µM

Row | SMILES | Response - % of Control (percent specifically bound compared to control)
1 | CC1Cn2c(nc3ccc(Cl)cc3c2=O)N1Cc1ccccc1 (stereo not shown) [Example 2B] | 5 % of Control
2 | O=c1c2cc(Cl)ccc2nc2n1CCN2Cc1ccccc1 [Example 2A] | 1 % of Control
3 | CC(c1ccccc1)N1CCn2c1nc1ccc(Cl)cc1c2=O (single isomer, unassigned) [Example 2D] | 15 % of Control
4 | O=c1c2cc(Cl)ccc2nc2n1CCN2Cc1ccc(Cl)cc1 [Example 2E, 1-(p-chlorobenzyl)-7-chloro-2,3-dihydro-imidazo[2,1-b]quinazolin-5(1H)-one] | 5 % of Control
